Measurements as given in US9139557B2, “Carboxamide compounds and their use as calpain inhibitors” (Abbott GmbH & Co. KG, priority 2006, dated 2015).

Legend:
Format in all cases: biochemical
[1] = biological target: T1, cathepsin B (Homo sapiens, UniProt P07858); assay: Cathepsin B enzyme inhibition in vitro (kinetic fluorescence assay); settings: Ki(cathepsin B)/Ki(calpain) ratio
T1 construct: cathepsin B—isolated from human liver; purchased Calbiochem 219362; host or cells: human liver (tissue isolate)
Method in brief: (§1)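 Kinetic fluorescence (ex 390/em 460 nm), RT. Calpain-I: 20 nM erythrocyte-derived, 100 μM Suc-Leu-Tyr-AMC, imidazole/CaCl2, pH 7.3. Cathepsins, pH 6.0 MES/EDTA/cysteine: B 0.25 nM liver, 100 μM Z-Phe-Arg-AMC; L 1 nM liver, 2 μM Z-Phe-Arg-AMC; S 0.5 nM recombinant, 20 μM Z-Val-Val-Arg-AMC. Cheng-Prusoff Ki, mean of 2–4 curves.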

[2] = biological target: T2, cathepsin S (Homo sapiens, UniProt P25774); assay: Cathepsin S enzyme inhibition in vitro (kinetic fluorescence assay); settings: Ki(cathepsin S)/Ki(calpain) ratio
T2 construct: purchased Calbiochem 219343; host or cells: E. coli
T2 sequence (P25774 115-331): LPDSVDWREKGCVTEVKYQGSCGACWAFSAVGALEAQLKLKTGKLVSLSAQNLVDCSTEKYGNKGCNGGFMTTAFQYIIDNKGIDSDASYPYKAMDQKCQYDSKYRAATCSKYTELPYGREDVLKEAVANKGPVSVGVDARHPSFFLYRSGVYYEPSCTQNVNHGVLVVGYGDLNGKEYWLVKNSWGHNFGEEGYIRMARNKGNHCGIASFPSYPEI
Method in brief: as §1

[3] = biological target: T3, cathepsin K (Homo sapiens, UniProt P43235); assay: Cathepsin K enzyme inhibition in vitro (kinetic fluorescence assay); settings: Ki(cathepsin K)/Ki(calpain) ratio
T3 construct: purchased Calbiochem 342001; host or cells: E. coli
T3 sequence (P43235 115-329): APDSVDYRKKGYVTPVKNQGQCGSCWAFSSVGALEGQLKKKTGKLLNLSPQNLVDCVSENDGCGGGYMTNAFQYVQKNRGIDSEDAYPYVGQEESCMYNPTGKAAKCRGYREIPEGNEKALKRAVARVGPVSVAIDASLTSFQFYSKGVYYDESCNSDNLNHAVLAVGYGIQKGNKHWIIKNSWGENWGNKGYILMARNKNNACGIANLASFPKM

[4] = biological target: T4, cathepsin L (Homo sapiens, UniProt P07711); assay: Cathepsin L enzyme inhibition in vitro (kinetic fluorescence assay); settings: Ki(cathepsin L)/Ki(calpain) ratio
T4 construct: cathepsin L—isolated from human liver; purchased Calbiochem 219402; host or cells: human liver (tissue isolate)
T4 sequence (P07711 114-333): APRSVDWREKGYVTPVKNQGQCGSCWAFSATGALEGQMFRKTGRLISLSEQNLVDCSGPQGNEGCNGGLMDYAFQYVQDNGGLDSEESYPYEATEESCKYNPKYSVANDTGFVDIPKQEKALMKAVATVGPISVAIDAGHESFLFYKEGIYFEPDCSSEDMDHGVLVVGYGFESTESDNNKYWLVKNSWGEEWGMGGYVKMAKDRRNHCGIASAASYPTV
Method in brief: as §1

SMILES | Sel cat. B [1] | Sel cat. S [2] | Sel cat. K [3] | Sel cat. L [4]
NC(=O)C(=O)C(Cc1ccccc1)NC(=O)c1cccnc1-n1ccc(-c2cccc(C(F)(F)F)c2Cl)n1 (stereo not drawn) [Example 155, N-[3-Amino-2,3-dioxo-1-(phenylmethyl)propyl]-2-{3-[2-chloro-3-(trifluoromethyl)phenyl]-1H-pyrazol-1-yl}pyridine-3-carboxamide] | ++ (++ means a Ki(cathepsin B)/Ki(calpain) ratio of ≧30) | ++ (++ means a Ki(cathepsin S)/Ki(calpain) ratio of ≧100) | ++ (++ means a Ki(cathepsin K)/Ki(calpain) ratio of ≧30) | ++ (++ means a Ki(cathepsin L)/Ki(calpain) ratio of ≧50)
NC(=O)C(=O)C(Cc1ccccc1)NC(=O)c1cccnc1-n1ccc(-c2ccc(N3CCCC3)cc2)n1 (stereo not drawn) [Example 69, N-(3-Amino-1-benzyl-2,3-dioxopropyl)-2-[3-(4-pyrrolidin-1-ylphenyl)-1H-pyrazol-1-yl]nicotinamide] | + (+ means 10≦Ki(cathepsin B)/Ki(calpain)<30) | ++ (++ means a Ki(cathepsin S)/Ki(calpain) ratio of ≧100) | + (+ means 10≦Ki(cathepsin K)/Ki(calpain)<30) | ++ (++ means a Ki(cathepsin L)/Ki(calpain) ratio of ≧50)
NC(=O)C(=O)C(Cc1ccccc1)NC(=O)c1cccnc1-n1ccc(-c2ccccc2OC(F)F)n1 (stereo not drawn) [Example 166, N-[3-Amino-2,3-dioxo-1-(phenylmethyl)propyl]-2-(3-{2-[(difluoromethyl)oxy]phenyl}-1H-pyrazol-1-yl)pyridine-3-carboxamide] | + (+ means 10≦Ki(cathepsin B)/Ki(calpain)<30) | ++ (++ means a Ki(cathepsin S)/Ki(calpain) ratio of ≧100) | ++ (++ means a Ki(cathepsin K)/Ki(calpain) ratio of ≧30) | ++ (++ means a Ki(cathepsin L)/Ki(calpain) ratio of ≧50)
COc1ccc(CC(NC(=O)c2cccnc2-n2ccc(-c3ccc4c(c3)OC(F)(F)O4)n2)C(=O)C(N)=O)cc1 (stereo not drawn) [Example 137, N-(3-Amino-1-{[4-(methyloxy)phenyl]methyl}-2,3-dioxopropyl)-2-[3-(2,2-difluoro-1,3-benzodioxol-5-yl)-1H-pyrazol-1-yl]pyridine-3-carboxamide] | + (+ means 10≦Ki(cathepsin B)/Ki(calpain)<30) | ++ (++ means a Ki(cathepsin S)/Ki(calpain) ratio of ≧100) | + (+ means 10≦Ki(cathepsin K)/Ki(calpain)<30) | ++ (++ means a Ki(cathepsin L)/Ki(calpain) ratio of ≧50)
NC(=O)C(=O)C(Cc1ccccc1)NC(=O)c1cccnc1-n1ccc(-c2cc(F)cc(F)c2)n1 (stereo not drawn) [Example 91, N-[3-Amino-2,3-dioxo-1-(phenylmethyl)propyl]-2-[3-(3,5-difluorophenyl)-1H-pyrazol-1-yl]pyridine-3-carboxamide] | ++ (++ means a Ki(cathepsin B)/Ki(calpain) ratio of ≧30) | ++ (++ means a Ki(cathepsin S)/Ki(calpain) ratio of ≧100) | + (+ means 10≦Ki(cathepsin K)/Ki(calpain)<30) | ++ (++ means a Ki(cathepsin L)/Ki(calpain) ratio of ≧50)
NC(=O)C(=O)C(Cc1ccccc1)NC(=O)c1cccnc1-n1ccc(-c2ccccc2F)n1 (stereo not drawn) [Example 76, N-(3-Amino-1-benzyl-2,3-dioxopropyl)-2-[3-(2-fluorophenyl)-1H-pyrazol-1-yl]nicotinamide] | ++ (++ means a Ki(cathepsin B)/Ki(calpain) ratio of ≧30) | ++ (++ means a Ki(cathepsin S)/Ki(calpain) ratio of ≧100) | + (+ means 10≦Ki(cathepsin K)/Ki(calpain)<30) | ++ (++ means a Ki(cathepsin L)/Ki(calpain) ratio of ≧50)
NC(=O)C(=O)C(Cc1ccccc1)NC(=O)c1cccnc1-n1ccc(-c2ccc(F)cc2Cl)n1 (stereo not drawn) [Example 71, N-(3-Amino-1-benzyl-2,3-dioxopropyl)-2-[3-(2-chloro-4-fluorophenyl)-1H-pyrazol-1-yl]nicotinamide] | ++ (++ means a Ki(cathepsin B)/Ki(calpain) ratio of ≧30) | ++ (++ means a Ki(cathepsin S)/Ki(calpain) ratio of ≧100) | ++ (++ means a Ki(cathepsin K)/Ki(calpain) ratio of ≧30) | ++ (++ means a Ki(cathepsin L)/Ki(calpain) ratio of ≧50)
CS(=O)(=O)Nc1cnc(-n2ccc(-c3ccccc3)n2)c(C(=O)NC(Cc2ccccc2)C(=O)C(N)=O)c1 (stereo not drawn) [Example 158, N-[3-Amino-2,3-dioxo-1-(phenylmethyl)propyl]-5-[(methylsulfonyl)amino]-2-(3-phenyl-1H-pyrazol-1-yl)pyridine-3-carboxamide] | ++ (++ means a Ki(cathepsin B)/Ki(calpain) ratio of ≧30) | ++ (++ means a Ki(cathepsin S)/Ki(calpain) ratio of ≧100) | ++ (++ means a Ki(cathepsin K)/Ki(calpain) ratio of ≧30) | ++ (++ means a Ki(cathepsin L)/Ki(calpain) ratio of ≧50)
COc1ccc(CC(NC(=O)c2cccnc2-n2ccc(-c3cccc4ccccc34)n2)C(=O)C(N)=O)cc1 (stereo not drawn) [Example 135, N-(3-Amino-1-{[4-(methyloxy)phenyl]methyl}-2,3-dioxopropyl)-2-(3-naphthalen-1-yl-1H-pyrazol-1-yl)pyridine-3-carboxamide] | ++ (++ means a Ki(cathepsin B)/Ki(calpain) ratio of ≧30) | ++ (++ means a Ki(cathepsin S)/Ki(calpain) ratio of ≧100) | ++ (++ means a Ki(cathepsin K)/Ki(calpain) ratio of ≧30) | ++ (++ means a Ki(cathepsin L)/Ki(calpain) ratio of ≧50)
NC(=O)C(=O)C(Cc1ccc(Cl)cc1)NC(=O)c1cccnc1-n1ccc(-c2ccc(F)cc2)n1 (stereo not drawn) [Example 67, N-[3-Amino-1-(4-chlorobenzyl)-2,3-dioxopropyl]-2-[3-(4-fluorophenyl)-1H-pyrazol-1-yl]nicotinamide] | + (+ means 10≦Ki(cathepsin B)/Ki(calpain)<30) | ++ (++ means a Ki(cathepsin S)/Ki(calpain) ratio of ≧100) | + (+ means 10≦Ki(cathepsin K)/Ki(calpain)<30) | ++ (++ means a Ki(cathepsin L)/Ki(calpain) ratio of ≧50)
NC(=O)C(=O)C(Cc1ccc(OC(F)(F)F)cc1)NC(=O)c1cccnc1-n1ccc(-c2cccc(C(F)(F)F)c2)n1 (stereo not drawn) [Example 134, N-[3-Amino-2,3-dioxo-1-({4-[(trifluoromethyl)oxy]phenyl}methyl)propyl]-2-{3-[3-(trifluoromethyl)phenyl]-1H-pyrazol-1-yl}pyridine-3-carboxamide] | ++ (++ means a Ki(cathepsin B)/Ki(calpain) ratio of ≧30) | + (+ means 50≦Ki(cathepsin S)/Ki(calpain)<100) | ++ (++ means a Ki(cathepsin K)/Ki(calpain) ratio of ≧30) | + (+ means 30≦Ki(cathepsin L)/Ki(calpain)<50)
COc1cc(Cl)ccc1-c1ccn(-c2ncccc2C(=O)NC(Cc2ccccc2)C(=O)C(N)=O)n1 (stereo not drawn) [Example 139, N-[3-Amino-2,3-dioxo-1-(phenylmethyl)propyl]-2-{3-[4-chloro-2-(methyloxy)phenyl]-1H-pyrazol-1-yl}pyridine-3-carboxamide] | + (+ means 10≦Ki(cathepsin B)/Ki(calpain)<30) | ++ (++ means a Ki(cathepsin S)/Ki(calpain) ratio of ≧100) | ++ (++ means a Ki(cathepsin K)/Ki(calpain) ratio of ≧30) | ++ (++ means a Ki(cathepsin L)/Ki(calpain) ratio of ≧50)
